Measured values published in paper PMC10127221 (ACS Chemical Biology, 2023).
Entries after “also recorded” stand apart in the source; their conditions may differ. Like-named read-outs stand apart in the source and are kept apart here.

How the values were obtained:
CamA [1] = molecular target: T1, CamA (Clostridioides difficile, UniProt Q183J3); assay: CamA methylation inhibition assay; format: biochemical; details: for inhibition of CamA activity at single concentration / inhibition of CamA activity (selectivity panel): 10 μM compound; for inhibition of CamA activity at single concentration: 50 nM CamA, 40 μM SAM (Figure 1B); for inhibition of CamA activity (selectivity panel): 40 μM SAM (Figure 4A); for fold difference in CamA inhibition between 11a and 11b: 11a more potent than 11b
T1 sequence (Q183J3 1-577): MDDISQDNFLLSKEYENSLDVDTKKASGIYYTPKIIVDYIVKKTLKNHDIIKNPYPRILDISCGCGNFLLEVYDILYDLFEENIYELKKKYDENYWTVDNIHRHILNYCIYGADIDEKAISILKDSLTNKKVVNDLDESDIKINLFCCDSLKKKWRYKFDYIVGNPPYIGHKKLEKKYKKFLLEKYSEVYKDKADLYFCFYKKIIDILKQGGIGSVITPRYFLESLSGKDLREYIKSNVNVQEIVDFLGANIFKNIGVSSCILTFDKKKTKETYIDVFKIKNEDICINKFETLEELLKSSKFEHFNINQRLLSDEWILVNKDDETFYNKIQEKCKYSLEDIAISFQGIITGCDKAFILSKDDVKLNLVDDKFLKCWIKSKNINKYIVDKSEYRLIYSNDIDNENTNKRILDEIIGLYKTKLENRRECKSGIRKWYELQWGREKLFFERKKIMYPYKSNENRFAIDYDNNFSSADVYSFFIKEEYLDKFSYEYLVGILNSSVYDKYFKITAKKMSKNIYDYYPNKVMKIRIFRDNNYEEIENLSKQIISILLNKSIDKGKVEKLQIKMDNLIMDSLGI

PRMT3 = PRMT3 (Homo sapiens, UniProt O60678); assay: PRMT3 inhibition, fluorescence-based SAHH-coupled assay; format: biochemical
CcrM = CcrM (Caulobacter vibrioides, UniProt P0CAW2); assay: Compound selectivity assay; format: biochemical; details: read-out: inhibition of CcrM activity, 10 μM compound, 40 μM SAM (Figure 4B)
Dam = molecular target: T2, Dam (Escherichia coli, UniProt P0AEE8); assay: Compound selectivity assay; format: biochemical; details: read-out: inhibition of Dam activity, 10 μM compound, 40 μM SAM (Figure 4C)
T2 sequence (P0AEE8 1-278): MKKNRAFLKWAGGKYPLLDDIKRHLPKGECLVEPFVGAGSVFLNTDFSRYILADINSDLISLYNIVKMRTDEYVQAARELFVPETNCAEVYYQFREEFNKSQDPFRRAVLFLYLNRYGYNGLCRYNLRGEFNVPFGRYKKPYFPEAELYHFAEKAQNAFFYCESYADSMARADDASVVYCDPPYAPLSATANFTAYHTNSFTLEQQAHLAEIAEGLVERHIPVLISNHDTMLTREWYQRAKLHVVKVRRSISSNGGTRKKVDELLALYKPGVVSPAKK

MettL3–MettL14 = MettL3–MettL14 (Homo sapiens, UniProt Q86U44); assay: Compound selectivity assay; format: biochemical; details: for inhibition at 10 µM: read-out: inhibition of MettL3–MettL14 activity
MettL5–Trm112 = MettL5–Trm112 (Homo sapiens, UniProt Q9NRN9); assay: Compound selectivity assay; format: biochemical; details: read-out: inhibition of MettL5–Trm112 activity
MettL16 = molecular target: T3, MettL16 (Homo sapiens, UniProt Q86W50); assay: Compound selectivity assay; format: biochemical; details: read-out: inhibition of MettL16 activity, 10 μM compound, 160 μM SAM (Figure 4F)
T3 sequence (Q86W50 1-562): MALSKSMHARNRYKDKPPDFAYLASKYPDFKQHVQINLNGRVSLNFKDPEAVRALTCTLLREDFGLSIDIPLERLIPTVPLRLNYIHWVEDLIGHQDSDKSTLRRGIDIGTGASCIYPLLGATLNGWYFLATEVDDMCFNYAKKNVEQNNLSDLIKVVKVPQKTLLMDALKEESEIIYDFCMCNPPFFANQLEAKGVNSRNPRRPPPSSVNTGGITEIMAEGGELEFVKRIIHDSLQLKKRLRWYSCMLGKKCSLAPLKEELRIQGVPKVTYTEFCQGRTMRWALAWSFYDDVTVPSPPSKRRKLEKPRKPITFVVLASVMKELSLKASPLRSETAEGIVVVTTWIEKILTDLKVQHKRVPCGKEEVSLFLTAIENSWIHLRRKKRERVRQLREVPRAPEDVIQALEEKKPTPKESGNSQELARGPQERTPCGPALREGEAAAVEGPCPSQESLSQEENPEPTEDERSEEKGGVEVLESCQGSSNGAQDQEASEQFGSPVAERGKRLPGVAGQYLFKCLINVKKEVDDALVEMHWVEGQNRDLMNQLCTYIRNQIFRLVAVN

PCIF1 = PCIF1 (Homo sapiens, UniProt Q9H4Z3); assay: Compound selectivity assay; format: biochemical; details: read-out: inhibition of PCIF1 activity
PRMT1 = PRMT1 (Homo sapiens, UniProt Q99873); assay: PRMT1 inhibition, fluorescence-based SAHH-coupled assay; format: biochemical; details: for IC50: IC50 PRMT1, 0.1 μM PRMT1, 10 μM SAM, 5 μM H4 peptide (1–21)
CamA [2] = molecular target: T1, CamA; details: read-out: Km of CamA for SAM; previous measurements; cited from earlier work
MettL5 = details: read-out: SAM Km of MettL5; cited from earlier work

MettL5–Trm112, sequence (Q9NRN9 whole entry): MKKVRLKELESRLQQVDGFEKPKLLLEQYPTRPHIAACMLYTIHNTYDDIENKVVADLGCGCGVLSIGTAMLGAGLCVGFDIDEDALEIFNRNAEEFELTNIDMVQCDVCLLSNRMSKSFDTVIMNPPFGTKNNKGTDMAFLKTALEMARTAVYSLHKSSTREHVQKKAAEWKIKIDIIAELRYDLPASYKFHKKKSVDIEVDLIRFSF
MettL5–Trm112, sequence (Q9UI30 whole entry partner): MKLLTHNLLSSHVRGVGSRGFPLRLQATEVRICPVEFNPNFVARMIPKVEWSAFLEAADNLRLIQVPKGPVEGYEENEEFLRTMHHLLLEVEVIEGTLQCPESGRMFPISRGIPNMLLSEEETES
PRMT1, sequence (Q99873 10-352 isoform Q99873-3): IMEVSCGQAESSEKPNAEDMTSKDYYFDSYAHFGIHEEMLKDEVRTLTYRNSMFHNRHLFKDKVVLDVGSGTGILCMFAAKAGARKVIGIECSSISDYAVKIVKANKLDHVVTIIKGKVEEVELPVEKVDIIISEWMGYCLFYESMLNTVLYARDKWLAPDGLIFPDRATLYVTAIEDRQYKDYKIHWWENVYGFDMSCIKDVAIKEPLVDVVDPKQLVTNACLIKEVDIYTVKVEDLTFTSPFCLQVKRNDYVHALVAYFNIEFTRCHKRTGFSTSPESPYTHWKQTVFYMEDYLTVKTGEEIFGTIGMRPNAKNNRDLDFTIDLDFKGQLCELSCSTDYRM
CcrM, sequence (P0CAW2 whole entry): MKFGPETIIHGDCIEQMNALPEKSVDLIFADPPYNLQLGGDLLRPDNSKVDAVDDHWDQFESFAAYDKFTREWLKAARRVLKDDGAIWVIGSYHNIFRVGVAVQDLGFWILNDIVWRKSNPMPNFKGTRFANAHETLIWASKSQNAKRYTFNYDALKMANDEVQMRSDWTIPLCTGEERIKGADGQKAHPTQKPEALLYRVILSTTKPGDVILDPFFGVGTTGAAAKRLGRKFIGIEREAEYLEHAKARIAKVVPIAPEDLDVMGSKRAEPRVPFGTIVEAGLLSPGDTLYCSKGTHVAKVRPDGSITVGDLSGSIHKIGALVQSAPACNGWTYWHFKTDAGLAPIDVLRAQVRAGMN
MettL3–MettL14, sequence (Q86U44 whole entry): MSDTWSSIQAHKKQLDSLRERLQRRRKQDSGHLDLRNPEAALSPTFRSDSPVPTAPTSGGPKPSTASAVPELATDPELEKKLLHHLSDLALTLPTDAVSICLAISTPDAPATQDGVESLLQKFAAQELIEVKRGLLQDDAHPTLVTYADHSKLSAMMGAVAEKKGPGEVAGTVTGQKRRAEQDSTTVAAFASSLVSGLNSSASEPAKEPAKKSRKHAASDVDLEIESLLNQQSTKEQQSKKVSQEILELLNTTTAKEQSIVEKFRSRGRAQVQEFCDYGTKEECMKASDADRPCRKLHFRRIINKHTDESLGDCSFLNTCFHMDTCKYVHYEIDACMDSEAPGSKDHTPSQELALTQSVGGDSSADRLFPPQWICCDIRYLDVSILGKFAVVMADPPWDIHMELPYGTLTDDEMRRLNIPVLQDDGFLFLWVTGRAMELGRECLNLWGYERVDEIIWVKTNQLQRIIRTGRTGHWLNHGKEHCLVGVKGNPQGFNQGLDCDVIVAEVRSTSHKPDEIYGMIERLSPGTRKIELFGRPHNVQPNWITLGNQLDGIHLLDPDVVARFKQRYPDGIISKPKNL
MettL3–MettL14, sequence (Q9HCE5 whole entry partner): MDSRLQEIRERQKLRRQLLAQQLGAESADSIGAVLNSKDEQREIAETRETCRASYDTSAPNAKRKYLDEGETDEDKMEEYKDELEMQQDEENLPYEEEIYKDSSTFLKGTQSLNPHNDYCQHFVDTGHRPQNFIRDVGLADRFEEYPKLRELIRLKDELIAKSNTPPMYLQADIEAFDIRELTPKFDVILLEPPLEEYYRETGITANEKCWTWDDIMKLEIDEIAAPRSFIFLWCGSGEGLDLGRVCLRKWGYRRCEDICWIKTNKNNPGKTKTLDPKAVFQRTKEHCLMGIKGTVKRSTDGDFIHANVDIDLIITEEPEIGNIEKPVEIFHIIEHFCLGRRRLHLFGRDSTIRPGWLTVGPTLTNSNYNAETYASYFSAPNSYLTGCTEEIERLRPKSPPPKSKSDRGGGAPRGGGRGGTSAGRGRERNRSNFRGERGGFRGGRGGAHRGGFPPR
PCIF1, sequence (Q9H4Z3 whole entry): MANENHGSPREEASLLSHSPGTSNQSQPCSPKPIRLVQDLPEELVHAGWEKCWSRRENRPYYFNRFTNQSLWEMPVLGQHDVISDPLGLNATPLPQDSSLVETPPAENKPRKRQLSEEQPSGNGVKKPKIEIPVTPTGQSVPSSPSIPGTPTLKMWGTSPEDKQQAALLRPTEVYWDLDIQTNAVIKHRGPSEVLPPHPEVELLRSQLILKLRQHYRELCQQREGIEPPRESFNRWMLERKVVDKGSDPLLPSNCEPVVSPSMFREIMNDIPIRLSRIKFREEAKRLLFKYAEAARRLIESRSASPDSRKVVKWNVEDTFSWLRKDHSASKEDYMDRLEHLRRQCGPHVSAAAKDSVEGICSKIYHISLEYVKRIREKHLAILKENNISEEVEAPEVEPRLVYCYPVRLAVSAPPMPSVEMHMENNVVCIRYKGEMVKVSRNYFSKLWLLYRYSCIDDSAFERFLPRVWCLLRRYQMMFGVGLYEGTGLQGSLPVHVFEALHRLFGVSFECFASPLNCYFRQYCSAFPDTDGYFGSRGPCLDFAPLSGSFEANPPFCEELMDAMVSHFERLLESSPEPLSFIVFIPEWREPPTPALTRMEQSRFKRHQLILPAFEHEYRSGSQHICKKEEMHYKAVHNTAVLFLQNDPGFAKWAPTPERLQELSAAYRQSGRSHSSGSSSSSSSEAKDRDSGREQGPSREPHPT
PRMT3, sequence (O60678 211-531): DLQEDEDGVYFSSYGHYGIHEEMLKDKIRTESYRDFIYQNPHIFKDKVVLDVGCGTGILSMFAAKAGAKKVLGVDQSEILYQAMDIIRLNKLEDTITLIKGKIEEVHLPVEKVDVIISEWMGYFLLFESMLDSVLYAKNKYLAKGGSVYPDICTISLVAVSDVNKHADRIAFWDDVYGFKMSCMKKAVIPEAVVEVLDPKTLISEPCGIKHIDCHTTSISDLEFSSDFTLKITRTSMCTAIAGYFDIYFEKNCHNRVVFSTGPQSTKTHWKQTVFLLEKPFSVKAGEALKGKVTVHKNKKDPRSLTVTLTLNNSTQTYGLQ

With `N=C(NCCCSC[C@H]1O[C@@H](n2cnc3c(N)ncnc32)[C@H](O)[C@@H]1O)NC1CCCCC1` [6d] the “inhibition of CamA activity at single concentration” value (CamA [1]) was ~60%.
In the case of `N=C(NCCCSC[C@H]1O[C@@H](n2cnc3c(N)ncnc32)[C@H](O)[C@@H]1O)NCC1CCCCC1` [6e], the “inhibition of CamA activity at single concentration” value (CamA [1]) is reported as ~85%, the “inhibition of CamA activity (selectivity panel)” value (CamA [1]) is reported as ≥ 80% and the “fold improved potency of CamA inhibition relative to SGC0946” value (CamA [1]; ratio of IC50 values) is reported as > 3 ×. The “fold weaker inhibition of CamA than of PRMT1” value (CamA [1]; ratio of IC50 values CamA vs PRMT1) was 12.5 ×, the “fold stronger inhibition of CamA than of PRMT3” value (CamA [1]; ratio of IC50 values CamA vs PRMT3) was > 4 × and the IC50 (PRMT3) was 6.5 µM. For the same compound, the inhibition at 10 µM (CcrM) was ≤ 50%, the inhibition at 10 µM (Dam) was ≤ 50% and the IC50 (MettL3–MettL14) was > 10 µM. The inhibition at 10 µM (MettL3–MettL14) was ~50%, the inhibition at 10 µM (MettL5–Trm112) was ~50% and the inhibition at 10 µM (MettL16) was ≤ 50%. The inhibition at 10 µM (PCIF1) was ≤ 50%.
For `N=C(NCCCSC[C@H]1O[C@@H](n2cnc3c(N)ncnc32)[C@H](O)[C@@H]1O)NCc1ccccc1` [6g], the “inhibition of CamA activity at single concentration” value (CamA [1]) was ~10%.
For `N=C(NCCSC[C@H]1O[C@@H](n2cnc3c(NCCCc4ccccc4)ncnc32)[C@H](O)[C@@H]1O)NCC1CCCCC1` [11a, 1-(cyclohexylmethyl)-3-(2-((((2S,3S,4R,5R)-3,4-dihydroxy-5-(6-((3-phenylpropyl)amino)-9H-purin-9-yl)tetrahydrofuran-2-yl)methyl)thio)ethyl)guanidine], the IC50 (CamA [1]) was ~0.15 µM, the Ki (CamA [1]) was 0.09 µM and the “inhibition of CamA activity (selectivity panel)” value (CamA [1]) was ≥ 80%. The “fold difference in CamA inhibition between 11a and 11b” value (CamA [1]) was 1.8 ×, the “fold improvement of CamA inhibition relative to 6e” value (CamA [1]; ratio of IC50 values) was 10 × and the “fold improvement of CamA inhibition relative to 7” value (CamA [1]; ratio of IC50 values) was 5 ×. The “mode of CamA inhibition (Lineweaver–Burk plot)” value (CamA [1]; with respect to SAM) was “competitive inhibition; also recorded: competitive inhibitor of SAM”, the IC50 (PRMT1) was 14 µM and the “fold reduction of PRMT1 inhibition from that of 6e” value (PRMT1; ratio of IC50 values) was ~116 ×. The IC50 (PRMT3) was > 100 µM, the inhibition at 10 µM (MettL3–MettL14) was ≤ 50% and the inhibition at 10 µM (MettL5–Trm112) was ≤ 50%. The inhibition at 10 µM (PCIF1) was ≤ 50%.
With `N=C(NCCCSC[C@H]1O[C@@H](n2cnc3c(NCCCc4ccccc4)ncnc32)[C@H](O)[C@@H]1O)NCC1CCCCC1` [11b] the IC50 (CamA [1]) was 0.27 µM, the “fold difference in CamA inhibition between 11a and 11b” value (CamA [1]) was 1.8 × and the IC50 (PRMT1) was 1.2 µM. For the same compound, the “fold reduction of PRMT1 inhibition from that of 6e” value (PRMT1; ratio of IC50 values) was 10 ×, the “fold stronger inhibition of PRMT1 than 11a” value (PRMT1; ratio of IC50 values) was > 11 × and the inhibition at 10 µM (CcrM) was ≤ 50%. The inhibition at 10 µM (Dam) was ≤ 50%, the inhibition at 10 µM (MettL3–MettL14) was ≤ 50% and the inhibition at 10 µM (MettL5–Trm112) was ~50%. The inhibition at 10 µM (MettL16) was ≤ 50% and the inhibition at 10 µM (PCIF1) was ≤ 50%.
For `Nc1ncnc2c1ccn2[C@@H]1O[C@H]([C@H](O)c2ccccc2)[C@@H](O)[C@H]1O` [LLY-283, reference compound], the “inhibition of CamA compared with compounds 1–3 (in words)” value (CamA [1]; 10 μM, Figure 1B, also ref 31) was “much weaker inhibition”.
For `C[S+](CC[C@H](N)C(=O)[O-])C[C@H]1O[C@@H](n2cnc3c(N)ncnc32)[C@H](O)[C@@H]1O` (stereo partly drawn) [SAM, S-Adenosyl-L-methionine], the Km (CamA [1]; read-out: Km of CamA for SAM, Michaelis–Menten, varying SAM (Figure 2E)) is listed as 25 µM, the Km (CamA [2]) is listed as > 17 µM and the Km (MettL5) is listed as 1 µM.
For `OC[C@H]1O[C@@H](n2cnc3c(NCCCc4ccccc4)ncnc32)[C@H](O)[C@@H]1O` [compound 7, N6-phenylpropyladenosine], the “inhibition of PRMT1 (in words)” value (PRMT1) was “does not significantly inhibit; also recorded: inhibits neither”, the “inhibition of PRMT3 (in words)” value (PRMT3) was “does not significantly inhibit; also recorded: inhibits neither” and the inhibition at 10 µM (CcrM) was ≤ 50%. The inhibition at 10 µM (Dam) was ≤ 50%, the inhibition at 10 µM (MettL3–MettL14) was ≤ 50% and the inhibition at 10 µM (MettL5–Trm112) was ≤ 50%. For the same compound, the inhibition at 10 µM (MettL16) was ≤ 50% and the inhibition at 10 µM (PCIF1) was ≤ 50%.
